# Data as given in article PMC5338256, “D-form KLKLLLLLKLK-NH2 peptide exerts higher antimicrobial properties than its L-form counterpart via an association with bacterial cell wall components” (Scientific Reports, 2017).
# Non-standard residues stand in square brackets, D forms with d. Residues, ends and D or L forms follow the SMILES beside them.
# Columns and labels:
# [1] = Calcein leakage from liposomes; assay type: biochemical; conditions: 10 min at room temperature, pH 6.0, triplicate assays
# Experimental: Liposomes were prepared as previously described with some modifications. S. aureus-mimetic liposomes[17][26] and mammalian-mimetic liposomes[27] were prepared by combining phospholipid mixtures (cardiolipin: L-α-phosphatidyl-DL-glycerol = 1:3 (mol/mol)) and 2-dioleoyl-sn-glycero-3-phosphocholine:1,2-dioleoyl-sn-glycero-3-phosphoethanolamine:Cholesterol = 4:2:3 (mol/mol/mol)), respectively. A 50 mM calcein solution was prepared by mixing 100 mg calcein with 3.1 ml of solution A (0.3 ml of 1 M Tris-HCl (pH 7.4), 0.9 ml of 5 M sodium hydroxide, and 13.8 ml of water). The liposomes were prepared by adding 1 ml of calcein solution to the dried lipid mixtures, followed by vortexing for 10 min at room temperature. The liposome solution (1 ml) was centrifuged at 3000 × g for 10 min, and the precipitate was resuspended in 1 ml of 20 mM Tris-HCl (pH 7.4) containing 150 mM sodium chloride. The centrifugation step was repeated two more times. Finally, the precipitate was suspended in 100 μl of 20 mM Tris-HCl (pH 7.4) containing 150 mM sodium chloride.
# Liposome suspensions were prepared by diluting of 1 μl of liposomes into 40 ml of 10 mM phosphate buffer (pH6.0) containing 130 mM sodium chloride. Peptides were serially diluted in 10 mM phosphate buffer (pH 6.0) containing 130 mM sodium chloride and 1% dimethyl sulfoxide. […]
# [2] = cited from earlier work
# [3] = test system: E. hirae; experiment: Assay for antimicrobial activity (10 min exposure, CFU); assay type: cell-based, Enterococcus hirae (NBRC3181); conditions: 10 min at 37 °C, triplicate plates
# Experimental: (§1) S. aureus (NBRC100910), E. coli W3110 (NBRC12713), E. hirae (NBRC3181), C. albicans (NBRC1385), and S. Typhimurium 14028s (ATCC14028)[2] were used in this study. S. aureus, E. coli, and S. Typhimurium were grown at 37 °C with aeration in Muller-Hinton II medium (BD Biosciences). E. hirae was grown at 37 °C in LB medium (Nacalai Tesque, Inc.) containing 0.5% glucose (w/v). C. albicans was grown at room temperature with aeration in YM medium (BD Biosciences). All experiments were conducted using bacterial cells and C. albicans in the logarithmic-phase of growth.
# (§2) Bacteria and C. albicans were suspended in growth medium. Peptides suspended in dimethyl sulfoxide were serially diluted in 10 mM phosphate buffer (pH 6.0) containing 130 mM sodium chloride, 0.2% bovine serum albumin as described previously. In order to examine the effects of bovine serum albumin on the assay, 10 mM phosphate buffer (pH 6.0) containing 130 mM sodium chloride, was used for the dilution of peptides. […] The inhibitory effects of the bacterial components were analyzed by incubating 450 μl of S. aureus suspension with 500 μl of peptide solution plus 50 μl of inhibitor samples at 37 °C for 10 min. […] After cultivation of the plates, colony forming units (CFU) in the peptide/bacteria suspension were calculated based on the average of triplicate plates.
# [4] = test system: S. aureus; experiment: as above; assay type: cell-based, Staphylococcus aureus (NBRC100910); conditions: for antimicrobial activity (CFU), D-form compared with L-form: 10 min at 37 °C
# Experimental: as §1
# Bacteria and C. albicans were suspended in growth medium. Peptides suspended in dimethyl sulfoxide were serially diluted in 10 mM phosphate buffer (pH 6.0) containing 130 mM sodium chloride, 0.2% bovine serum albumin as described previously. In order to examine the effects of bovine serum albumin on the assay, 10 mM phosphate buffer (pH 6.0) containing 130 mM sodium chloride, was used for the dilution of peptides. Peptide solution (500 μl) was added to 500 μl of bacteria suspensions and then the mixture was incubated at 37 °C for 10 min. In order to examine the effects of culture medium components on the assay, bacteria suspension was prepared with 10 mM phosphate buffer (pH 6.0) containing 130 mM sodium chloride. Alternatively, 500 μl of peptide solution was added to 500 μl of C. albicans suspensions and the mixture was incubated at room temperature for 10 min. The inhibitory effects of the bacterial components were analyzed by incubating 450 μl of S. aureus suspension with 500 μl of peptide solution plus 50 μl of inhibitor samples at 37 °C for 10 min. Then, the peptide/bacteria suspensions were diluted and plated onto LB agar, LB agar containing 0.5% glucose, or YM agar. After cultivation of the plates, colony forming units (CFU) in the peptide/bacteria suspension were calculated based on the average of triplicate plates.
# [5] = test system: Staphylococcus aureus; conditions: cited from earlier work
# Excerpt: We determined minimum inhibitory concentrations (MICs) of other ant ...
# [6] = test system: E. coli; assay type: cell-based, Escherichia coli W3110 (NBRC12713); conditions: pH 6
# Experimental: as §1
# Bacterial suspensions in Muller-Hinton II medium were adjusted to an optical density of 550 nm (OD550) = 0.0011. C. albicans suspensions in YM medium were adjusted to OD650 = 0.033. Peptides were serially diluted in 10 mM phosphate buffer (pH 6.0) containing 130 mM sodium chloride, 0.2% bovine serum albumin, and 2.56% dimethyl sulfoxide. The peptide solution (100 μl) was mixed with 100 μl of bacteria or C. albicans suspensions. Bacterial cultures were incubated for one day at 37 °C. C. albicans cultures were incubated for two days at room temperature. Cell growth was monitored optically and the MIC was determined.
# [7] = test system: S. Typhimurium; experiment: Assay for antimicrobial activity (10 min exposure, CFU); assay type: cell-based, Salmonella enterica serovar Typhimurium 14028s; conditions: 10 min at 37 °C, triplicate plates
# Experimental: as §1, §2
# [8] = test system: S. aureus peptidoglycan; experiment: Peptidoglycan-binding assay; design: species or system Staphylococcus aureus; conditions: biotin-labeled peptides on immobilized peptidoglycan; 37 °C, 2 h; avidin-labeled peroxidase, absorbance 450 nm; triplicate assays
# Experimental: Peptidoglycan-binding assays were performed as previously described with some modifications. Peptidoglycan from S. aureus (100 μg/ml) was suspended in 0.2% trifluoroacetic acid and sonicated twice for 10 sec at setting 1 using a Branson sonifier model S-150D. The peptidoglycan suspension (50 μl) was used to coat the wells of a flat bottom 96-well microplate (Thermo Fisher Scientific). The plate was incubated at room temperature until the water evaporated. The plate was placed at 60 °C for 1 h to dry out completely, and then blocked with 200 μl of 5 mg/ml bovine serum albumin in binding buffer (10 mM phosphate buffer (pH 6.0) containing 130 mM sodium chloride, 0.05% Tween 20, and 0.01% trifluoroacetic acid) at 37 °C for 2 h. The plate was washed four times with 200 μl of binding buffer. Biotin-labeled peptides in 100 μl of binding buffer containing 0.5% dimethyl sulfoxide were added to the wells and incubated at 37 °C for 2 h. Detection of biotin-labeled peptides was performed using Vectastain ABC reagent (Vector Laboratories) according to manufacturer’s instructions. The wells were washed four times with binding buffer, then 100 μl of avidin-labeled peroxidase was added to each well, and the plate was incubated at 37 °C for 1 h. The wells were washed again as described above. […] Absorbance was measured at 450 nm.
smiles,measurement,setting,value
CC(C)C[C@@H](NC(=O)[C@H](N)CCCCN)C(=O)N[C@H](CCCCN)C(=O)N[C@H](CC(C)C)C(=O)N[C@H](CC(C)C)C(=O)N[C@H](CC(C)C)C(=O)N[C@H](CC(C)C)C(=O)N[C@H](CC(C)C)C(=O)N[C@H](CCCCN)C(=O)N[C@H](CC(C)C)C(=O)N[C@H](CCCCN)C(N)=O [D-form KLKLLLLLKLK-NH2] (H-[dK][dL][dK][dL][dL][dL][dL][dL][dK][dL][dK]-NH2; N-terminus assumed),calcein release from liposomes,[1]; S. aureus-mimetic liposomes (cardiolipin:phosphatidylglycerol 1:3),released calcein
same,calcein release from liposomes,[1]; mammalian-mimetic liposomes (phosphatidylcholine:phosphatidylethanolamine:cholesterol 4:2:3),neither D-form nor L-form KLKLLLLLKLK-NH2 was able to release calcein
same,"persistence in bacterial culture medium, D-form compared with L-form",[2],persist longer
same,"antimicrobial activity (CFU), D-form compared with L-form",[3],higher antimicrobial activity
same,antimicrobial activity relative to the standard assay condition,"[4]; 10 min, in the absence of culture medium and bovine serum albumin",lower
same,"antimicrobial activity (CFU), D-form compared with L-form",[4]; in the absence of culture medium and/or bovine serum albumin,higher antimicrobial activity
same,"antimicrobial activity (CFU), D-form compared with L-form","[4]; standard assay with culture medium and 0.2% BSA, triplicate plates",higher antimicrobial activity
same,peptide concentration at which D-form and L-form displayed similar antimicrobial activity,[4]; 10 min exposure,1.9 µg/mL
same,"antimicrobial activity, D-form compared with L-form",[5],higher antimicrobial activity
same,MIC,[6],8 µg/mL
same,"antimicrobial activity (CFU), D-form compared with L-form",[7],higher antimicrobial activity
same,"affinity for S. aureus peptidoglycan, D-form compared with L-form",[8],higher affinity
